Among the data in ChEMBL document CHEMBL5729568, “Ras inhibitors” (2023) are IC50 values, retold here.

Assay [1] in a line: (§1) Biochemical Assay: A variety of Ras proteins may be inhibited by compounds of the present invention (e.g., K-Ras, N-Ras, H-Ras, and mutants thereof at positions 12, 13 and 61, such as G12C, G12D, G12V, G12S, G13C, G13D, and Q61L, and others described herein). The purpose of this biochemical assay is to measure the ability of test compounds to covalently label nucleotide-loaded K-Ras isoforms. […] The sample is incubated at 25? C. for a time period of up to 24 hours prior to quenching by the addition of 10 uL of 5% Formic Acid. Quenched samples are centrifuged at 15000 rpm for 15 minutes in a benchtop centrifuge before injecting a 10 uL aliquot onto a reverse phase C4 column and eluting into the mass spectrometer with an increasing acetonitrile gradient in the mobile phase. Analysis of raw data may be carried out using Waters MassLynx MS software, with % bound calculated from the deconvoluted protein peaks for labeled and unlabeled K-Ras.

Assay [2] in a line: as §1. The source holds these as a separate data set.
Assay [3] can be described thus: as §1. The source holds these as a separate data set.
A short description of assay [4]: as §1. This is another data set of the same source.
Assay [5] in a line: as §1. This is another data set of the same source.

On to `CCn1c(-c2cccnc2C(C)OC)c2c3cc(ccc31)-c1cccc(c1)C[C@H](NC(=O)[C@H](C(C)C)N(C)C(=O)[C@H]1CCN(C(=O)/C=C/C(F)F)C1)C(=O)N1CCC[C@H](N1)C(=O)OCC(C)(C)C2` (stereo not given in full), for which the IC50 (usually the concentration that gives 50% inhibition) was “in the range around 0.055 µM” in assay [1]; “in the range around 0.55 µM” in assay [2]; “in the range around 5.5 µM” in assay [3]; “in the range around 5.5 µM” in assay [4]; “in the range around 5.5 µM” in assay [5].
As to `C=CC(=O)N1CC(OCC(C(=O)N[C@H]2Cc3cccc(c3)-c3ccc4c(c3)c(c(-c3cccnc3C(C)OC)n4CC)CC(C)(C)COC(=O)[C@@H]3CCCN(N3)C2=O)C(C)C)C1` (stereo not given in full), the IC50 result in assay [1] was “in the range around 5.5 µM”; in assay [2] it was “in the range around 5.5 µM”; in assay [5] it was over 10 µM.
For the compound `CCn1c(-c2cccnc2C(C)OC)c2c3cc(ccc31)-c1cccc(c1)C[C@H](NC(=O)[C@H](C(C)C)N(C)C(=O)[C@H]1CCN(C(=O)/C=C/CF)C1)C(=O)N1CCC[C@H](N1)C(=O)OCC(C)(C)C2` (stereo not given in full), the IC50 result is “in the range around 0.55 µM” in assay [1]; “in the range around 0.55 µM” in assay [2]; “in the range around 5.5 µM” in assay [3]; “in the range around 5.5 µM” in assay [4]; “in the range around 5.5 µM” in assay [5].
Take `C=CC(=O)N1CC[C@H](C(=O)N(C)[C@H](C(=O)N[C@H]2Cc3cc(O)cc(c3)-c3ccc4c(c3)c(c(-c3cnccc3[C@H](C)OC)n4CC)CC(C)(C)COC(=O)[C@@H]3CCCN(N3)C2=O)C(C)C)C1`: the IC50 result in assay [2], in assay [3], in assay [4] and in assay [5] was “in the range around 0.055 µM” in each case.
As to `C=CC(=O)N1CC(OCC(C(=O)N[C@H]2Cc3cc(cc(C(F)F)c3)-c3ccc4c(c3)c(c(-c3cccnc3C(C)OC)n4CC(F)(F)F)CC(C)(C)COC(=O)[C@@H]3CCCN(N3)C2=O)C(C)C)C1` (stereo not given in full), the IC50 in assay [1], in assay [2], in assay [3], in assay [4] and in assay [5] was over 10 µM throughout.
For `C=CC(=O)N1CC[C@H](C(=O)N(C)[C@H](C(=O)N[C@H]2Cc3cc(O)cc(c3)-c3ccc4c(c3)c(c(-c3ccncc3CCOC)n4CC)CC(C)(C)COC(=O)[C@@H]3CCCN(N3)C2=O)C(C)C)C1`, the IC50 result in assay [2], in assay [3] and in assay [5] was “in the range around 0.55 µM” throughout.
`C=CC(=O)N1CC(OCC(C(=O)N[C@H]2Cc3cccc(c3)-c3ccc4c(c3)c(c(-c3cccnc3C(C)OC)n4CC(F)(F)F)CC(C)(C)COC(=O)[C@@H]3CCCN(N3)C2=O)C(C)C)C1` (stereo not given in full): the IC50 entry is “in the range around 5.5 µM” in assay [1]; over 10 µM in assay [2]; over 10 µM in assay [3]; over 10 µM in assay [4]; over 10 µM in assay [5].
For `C=CC(=O)N1CC[C@H](C(=O)N(C)[C@H](C(=O)N[C@H]2Cc3cc(OC(=O)CCC(=O)O)cc(c3)-c3ccc4c(c3)c(c(-c3ccccc3CCOC)n4CC)CC(C)(C)COC(=O)[C@@H]3CCCN(N3)C2=O)C(C)C)C1`, the IC50 result in assay [2] is “in the range around 5.5 µM”; in assay [3] it was “in the range around 0.55 µM”; in assay [5], “in the range around 5.5 µM”.
As for `C=CC(=O)N1CC[C@H](C(=O)N(C)[C@H](C(=O)N[C@H]2Cc3cc(OC(=O)NCC(=O)O)cc(c3)-c3ccc4c(c3)c(c(-c3ccccc3CCOC)n4CC)CC(C)(C)COC(=O)[C@@H]3CCCN(N3)C2=O)C(C)C)C1`, the IC50 result in assay [2] is “in the range around 0.55 µM”; in assay [3], “in the range around 5.5 µM”; in assay [5] it was “in the range around 5.5 µM”.
`C=CC(=O)N1CC[C@H](C(=O)N(C)[C@H](C(=O)N[C@H]2Cc3cc(O)cc(c3)-c3cc(F)c4c(c3)c(c(-c3ccccc3CCOC)n4CC)CC(C)(C)COC(=O)[C@@H]3CCCN(N3)C2=O)C(C)C)C1`: the 50% inhibitory concentration (IC50) entry in assay [3] was “in the range around 5.5 µM”.
Take `CCn1c(-c2cccnc2C(C)OC)c2c3cc(ccc31)-c1cccc(c1)C[C@H](NC(=O)CCOC1CN(C(=O)C#CC(C)(C)N(C)C)C1)C(=O)N1CCC[C@H](N1)C(=O)OCC(C)(C)C2` (stereo not given in full): the 50% inhibitory concentration (IC50) result in assay [1] was “in the range around 0.055 µM”; in assay [2], over 10 µM; in assay [3], over 10 µM; in assay [4] it was over 10 µM; in assay [5] it was over 10 µM.
Consider `CCn1c(-c2cccnc2C(C)OC)c2c3cc(ccc31)-c1cc(cc(C(F)F)c1)C[C@H](NC(=O)C(COC1CN(C(=O)C#CC(C)(C)N(C)C)C1)C(C)C)C(=O)N1CCC[C@H](N1)C(=O)OCC(C)(C)C2` (stereo not given in full), for which the half-inhibitory concentration (IC50) entry in assay [1] is “in the range around 0.55 µM”; in assay [2] it was over 10 µM; in assay [3], over 10 µM; in assay [4], over 10 µM; in assay [5], over 10 µM.
With `C=CC(=O)N1CC[C@H](C(=O)N(C)[C@H](C(=O)N[C@H]2Cc3cc(O)cc(c3)-c3ccc4c(c3)c(c(-c3ccccc3CO)n4CC)CC(C)(C)COC(=O)[C@@H]3CCCN(N3)C2=O)C(C)C)C1`, the IC50 entry in assay [2] is “in the range around 5.5 µM”; in assay [3], “in the range around 0.55 µM”; in assay [5], “in the range around 0.55 µM”.
Regarding `C=CC(=O)N1CC[C@]2(CCN(C(=O)N(C)[C@H](C(=O)N[C@@H]3Cc4cc(O)cc(c4)-c4ccc5c(c4)c(c(-c4ccccc4CCOC)n5CC)CC(C)(C)COC(=O)[C@@H]4CCCN(N4)C3=O)C(C)C)C2=O)C1`, the concentration for half-maximal inhibition (IC50) entry was “in the range around 0.55 µM” in assay [2], “in the range around 5.5 µM” in assay [3] and “in the range around 5.5 µM” in assay [5].
`C=CC(=O)N1CC[C@H](C(=O)N(C)[C@H](C(=O)N[C@H]2Cc3cccc(c3)-c3ccc4c(c3)c(c(-c3cc(C5=CCN(C)CC5)cnc3C(C)OC)n4CC)CC(C)(C)COC(=O)[C@@H]3CCCN(N3)C2=O)C(C)C)C1` (stereo not given in full): the IC50 result is “in the range around 5.5 µM” in assay [1]; “in the range around 5.5 µM” in assay [2]; over 10 µM in assay [3]; over 10 µM in assay [4]; over 10 µM in assay [5].
On to `C=CC(=O)N1CC(OCC(C(=O)N[C@H]2Cc3cc(cc(C(F)F)c3)-c3ccc4c(c3)c(c(-c3cccnc3C(C)OC)n4CC)CC(C)(C)COC(=O)[C@@H]3CCCN(N3)C2=O)C(C)C)C1` (stereo not given in full), for which the IC50 in assay [1], in assay [2], in assay [3], in assay [4] and in assay [5] was over 10 µM throughout.
Consider `C=CC(=O)Nc1cnc(C(=O)N(C)[C@H](C(=O)N[C@H]2Cc3cccc(c3)-c3ccc4c(c3)c(c(-c3cccnc3C(C)OC)n4CC)CC(C)(C)COC(=O)[C@@H]3CCCN(N3)C2=O)C(C)C)n1C` (stereo not given in full), for which the IC50 entry is “in the range around 0.055 µM” in assay [1]; “in the range around 0.055 µM” in assay [2]; “in the range around 5.5 µM” in assay [3]; “in the range around 5.5 µM” in assay [4]; “in the range around 5.5 µM” in assay [5].
`CCn1c(-c2cccnc2C(C)OC)c2c3cc(ccc31)-c1cccc(c1)C[C@H](NC(=O)[C@H](C(C)C)N(C)C(=O)[C@H]1CCN(C(=O)C#CC3CCO3)C1)C(=O)N1CCC[C@H](N1)C(=O)OCC(C)(C)C2` (stereo not given in full): the IC50 was under 0.01 µM in assay [1]; “in the range around 0.55 µM” in assay [2]; “in the range around 5.5 µM” in assay [3]; “in the range around 5.5 µM” in assay [4]; “in the range around 5.5 µM” in assay [5].
With `CCn1c(-c2ccccc2CCOC)c2c3cc(ccc31)-c1cc(O)cc(c1)C[C@H](NC(=O)[C@H](C(C)C)N(C)C(=O)[C@H]1CCN(C(=O)/C=C/CN(C)C)C1)C(=O)N1CCC[C@H](N1)C(=O)OCC(C)(C)C2`, the IC50 entry was “in the range around 5.5 µM” in assay [2], “in the range around 0.55 µM” in assay [3] and “in the range around 0.55 µM” in assay [5].
On to `C=CC(=O)C1C[C@@H](C(=O)N(C)[C@H](C(=O)N[C@@H]2Cc3cc(O)cc(c3)-c3cnc4c(c3)c(c(-c3ccccc3CCOC)n4CC)CC(C)(C)COC(=O)[C@@H]3CCCN(N3)C2=O)C(C)C)CN1` (stereo not given in full), for which the concentration for half-maximal inhibition (IC50) entry in assay [1], in assay [3] and in assay [5] was “in the range around 5.5 µM” each time.
`C=CC(=O)N1CC(OCC(C(=O)N[C@H]2Cc3nc(cs3)-c3ccc4c(c3)c(c(-c3cccnc3C(C)OC)n4CC)CC(C)(C)COC(=O)[C@@H]3CCCN(N3)C2=O)C(C)C)C1` (stereo not given in full): the concentration for half-maximal inhibition (IC50) result in assay [1] is “in the range around 0.55 µM”; in assay [2], “in the range around 5.5 µM”; in assay [3], “in the range around 5.5 µM”; in assay [4], “in the range around 5.5 µM”; in assay [5] it was “in the range around 5.5 µM”.
As for `C=CC(=O)N1CC2(CCN([C@H](C(=O)N[C@H]3Cc4cc(O)cc(c4)-c4ccc5c(c4)c(c(-c4ccccc4CCOC)n5CC)CC(C)(C)COC(=O)[C@@H]4CCCN(N4)C3=O)C(C)C)C2=O)C1`, the IC50 entry in assay [5] is “in the range around 5.5 µM”.
As for `CCn1c(-c2cccnc2[C@H](C)OC)c2c3cc(ccc31)-c1cc(O)cc(c1)C[C@H](NC(=O)[C@H](C(C)C)N(C)C(=O)c1nc(NC(=O)/C=C/CN(C)C)cs1)C(=O)N1CCC[C@H](N1)C(=O)OCC(C)(C)C2`, the values for the IC50 entry in assay [2], in assay [4] and in assay [5] were “in the range around 0.055 µM”, “in the range around 5.5 µM” and “in the range around 5.5 µM”, respectively.
With `CCn1c(-c2cnccc2COC)c2c3cc(ccc31)-c1cc(O)cc(c1)C[C@H](NC(=O)[C@H](C(C)C)N(C)C(=O)[C@H]1CCN(C(=O)C#CCN(C)C)C1)C(=O)N1CCC[C@H](N1)C(=O)OCC(C)(C)C2` (atropisomer, axis not shown), the IC50 in assay [1] and in assay [2] was under 0.01 µM each time.
